Assay: xn = mol fraction of the nth substance listed
Settings: Liquid

ClCCCl [1,2-dichloroethane] + CCOC(C)=O
Settings | mass density [kg/m3]
288.15 K, 101.33 kPa, x1 = 0.1036 | 936.39
288.15 K, 101.33 kPa, x1 = 0.2054 | 966.98
288.15 K, 101.33 kPa, x1 = 0.3019 | 996.99
288.15 K, 101.33 kPa, x1 = 0.4003 | 1028.99
288.15 K, 101.33 kPa, x1 = 0.4963 | 1061.48
288.15 K, 101.33 kPa, x1 = 0.602 | 1098.83
288.15 K, 101.33 kPa, x1 = 0.682 | 1128.5
288.15 K, 101.33 kPa, x1 = 0.8002 | 1174.96
288.15 K, 101.33 kPa, x1 = 0.9001 | 1216.19
288.15 K, 101.33 kPa, x1 = 1 | 1260.13
298.15 K, 101.33 kPa, x1 = 0.1036 | 924.54
298.15 K, 101.33 kPa, x1 = 0.2054 | 954.82
298.15 K, 101.33 kPa, x1 = 0.3019 | 984.84
298.15 K, 101.33 kPa, x1 = 0.4003 | 1016.64
298.15 K, 101.33 kPa, x1 = 0.4963 | 1048.95
298.15 K, 101.33 kPa, x1 = 0.602 | 1086.09
298.15 K, 101.33 kPa, x1 = 0.682 | 1115.64
298.15 K, 101.33 kPa, x1 = 0.8002 | 1161.78
298.15 K, 101.33 kPa, x1 = 0.9001 | 1202.79
298.15 K, 101.33 kPa, x1 = 1 | 1246.59
298.15 K, 200 kPa, x1 = 0.2995 | 983.88
298.15 K, 200 kPa, x1 = 0.5013 | 1046.97
298.15 K, 200 kPa, x1 = 0.6994 | 1120.18
298.15 K, 500 kPa, x1 = 0.2995 | 984.27
298.15 K, 600 kPa, x1 = 0.5013 | 1047.36
298.15 K, 600 kPa, x1 = 0.6994 | 1120.72
298.15 K, 1100 kPa, x1 = 0.5013 | 1047.97
298.15 K, 1200 kPa, x1 = 0.2995 | 985.01
298.15 K, 1200 kPa, x1 = 0.6994 | 1121.21
298.15 K, 2100 kPa, x1 = 0.5013 | 1049.05
298.15 K, 2100 kPa, x1 = 0.6994 | 1122.19
298.15 K, 2300 kPa, x1 = 0.2995 | 986.02
298.15 K, 2900 kPa, x1 = 0.2995 | 986.78
298.15 K, 3000 kPa, x1 = 0.6994 | 1122.99
298.15 K, 3200 kPa, x1 = 0.5013 | 1050.04
298.15 K, 3900 kPa, x1 = 0.5013 | 1050.82
298.15 K, 4000 kPa, x1 = 0.2995 | 987.78
298.15 K, 4000 kPa, x1 = 0.6994 | 1124.04
298.15 K, 4800 kPa, x1 = 0.5013 | 1051.57
298.15 K, 4800 kPa, x1 = 0.6994 | 1124.91
298.15 K, 5000 kPa, x1 = 0.2995 | 988.82
298.15 K, 5900 kPa, x1 = 0.2995 | 989.64
298.15 K, 6100 kPa, x1 = 0.5013 | 1052.93
298.15 K, 6100 kPa, x1 = 0.6994 | 1126.11
298.15 K, 6900 kPa, x1 = 0.2995 | 990.62
298.15 K, 7000 kPa, x1 = 0.6994 | 1126.84
298.15 K, 7100 kPa, x1 = 0.5013 | 1053.82
298.15 K, 7800 kPa, x1 = 0.2995 | 991.51
298.15 K, 7800 kPa, x1 = 0.5013 | 1054.57
298.15 K, 8000 kPa, x1 = 0.6994 | 1127.94
298.15 K, 8600 kPa, x1 = 0.2995 | 992.31
298.15 K, 8800 kPa, x1 = 0.6994 | 1128.76
298.15 K, 9000 kPa, x1 = 0.5013 | 1055.76
298.15 K, 9800 kPa, x1 = 0.5013 | 1056.47
298.15 K, 9900 kPa, x1 = 0.2995 | 993.71
298.15 K, 9900 kPa, x1 = 0.6994 | 1129.84
298.15 K, 11700 kPa, x1 = 0.2995 | 995.34
298.15 K, 11900 kPa, x1 = 0.5013 | 1058.45
298.15 K, 12000 kPa, x1 = 0.6994 | 1131.77
298.15 K, 13700 kPa, x1 = 0.6994 | 1133.5
298.15 K, 13800 kPa, x1 = 0.2995 | 997.35
298.15 K, 13800 kPa, x1 = 0.5013 | 1060.29
298.15 K, 15600 kPa, x1 = 0.6994 | 1135.23
298.15 K, 15900 kPa, x1 = 0.2995 | 999.26
298.15 K, 15900 kPa, x1 = 0.5013 | 1062.3
298.15 K, 17700 kPa, x1 = 0.6994 | 1137.32
298.15 K, 17900 kPa, x1 = 0.2995 | 1001.14
298.15 K, 18000 kPa, x1 = 0.5013 | 1064.25
298.15 K, 19400 kPa, x1 = 0.2995 | 1002.51
298.15 K, 19600 kPa, x1 = 0.6994 | 1139.1
298.15 K, 19900 kPa, x1 = 0.5013 | 1065.99
308.15 K, 101.33 kPa, x1 = 0.1036 | 911.53
308.15 K, 101.33 kPa, x1 = 0.2054 | 941.7
308.15 K, 101.33 kPa, x1 = 0.3019 | 971.32
308.15 K, 101.33 kPa, x1 = 0.4003 | 1002.93
308.15 K, 101.33 kPa, x1 = 0.4963 | 1035.07
308.15 K, 101.33 kPa, x1 = 0.602 | 1071.98
308.15 K, 101.33 kPa, x1 = 0.682 | 1101.3
308.15 K, 101.33 kPa, x1 = 0.8002 | 1147.08
308.15 K, 101.33 kPa, x1 = 0.9001 | 1187.86
308.15 K, 101.33 kPa, x1 = 1 | 1231.27

ClCCBr [1-bromo-2-chloroethane] + CCOC(C)=O
Settings | mass density [kg/m3]
288.15 K, 101.33 kPa, x1 = 0.108 | 984.97
288.15 K, 101.33 kPa, x1 = 0.1985 | 1051.71
288.15 K, 101.33 kPa, x1 = 0.2997 | 1128.56
288.15 K, 101.33 kPa, x1 = 0.3988 | 1205.99
288.15 K, 101.33 kPa, x1 = 0.5008 | 1288.67
288.15 K, 101.33 kPa, x1 = 0.5477 | 1327.76
288.15 K, 101.33 kPa, x1 = 0.6462 | 1412.26
288.15 K, 101.33 kPa, x1 = 0.7653 | 1518.63
288.15 K, 101.33 kPa, x1 = 0.803 | 1553.45
288.15 K, 101.33 kPa, x1 = 0.905 | 1650.02
288.15 K, 101.33 kPa, x1 = 1 | 1744.36
298.15 K, 101.33 kPa, x1 = 0.108 | 972.55
298.15 K, 101.33 kPa, x1 = 0.1985 | 1039.06
298.15 K, 101.33 kPa, x1 = 0.2997 | 1115.49
298.15 K, 101.33 kPa, x1 = 0.3988 | 1192.41
298.15 K, 101.33 kPa, x1 = 0.5008 | 1274.57
298.15 K, 101.33 kPa, x1 = 0.5477 | 1313.32
298.15 K, 101.33 kPa, x1 = 0.6462 | 1397.28
298.15 K, 101.33 kPa, x1 = 0.7653 | 1503.13
298.15 K, 101.33 kPa, x1 = 0.803 | 1537.71
298.15 K, 101.33 kPa, x1 = 0.905 | 1634.03
298.15 K, 101.33 kPa, x1 = 1 | 1727.88
298.15 K, 200 kPa, x1 = 0.2995 | 1115.91
298.15 K, 200 kPa, x1 = 0.5013 | 1278.27
298.15 K, 200 kPa, x1 = 0.6994 | 1442.43
298.15 K, 500 kPa, x1 = 0.2995 | 1116.35
298.15 K, 600 kPa, x1 = 0.6994 | 1443.12
298.15 K, 700 kPa, x1 = 0.5013 | 1278.85
298.15 K, 1100 kPa, x1 = 0.6994 | 1443.6
298.15 K, 1200 kPa, x1 = 0.2995 | 1117.05
298.15 K, 1200 kPa, x1 = 0.5013 | 1279.48
298.15 K, 2100 kPa, x1 = 0.2995 | 1118.11
298.15 K, 2100 kPa, x1 = 0.5013 | 1280.34
298.15 K, 2100 kPa, x1 = 0.6994 | 1444.65
298.15 K, 2900 kPa, x1 = 0.6994 | 1445.74
298.15 K, 3000 kPa, x1 = 0.2995 | 1119.13
298.15 K, 3000 kPa, x1 = 0.5013 | 1281.5
298.15 K, 4000 kPa, x1 = 0.2995 | 1120.19
298.15 K, 4000 kPa, x1 = 0.5013 | 1282.56
298.15 K, 4100 kPa, x1 = 0.6994 | 1447.07
298.15 K, 5000 kPa, x1 = 0.2995 | 1121.32
298.15 K, 5000 kPa, x1 = 0.5013 | 1283.71
298.15 K, 5100 kPa, x1 = 0.6994 | 1448.15
298.15 K, 5800 kPa, x1 = 0.2995 | 1122.17
298.15 K, 5800 kPa, x1 = 0.6994 | 1448.98
298.15 K, 5900 kPa, x1 = 0.5013 | 1284.8
298.15 K, 7000 kPa, x1 = 0.5013 | 1285.84
298.15 K, 7000 kPa, x1 = 0.6994 | 1450.32
298.15 K, 7100 kPa, x1 = 0.2995 | 1123.21
298.15 K, 7700 kPa, x1 = 0.6994 | 1451.09
298.15 K, 7900 kPa, x1 = 0.2995 | 1124.37
298.15 K, 8000 kPa, x1 = 0.5013 | 1286.92
298.15 K, 8600 kPa, x1 = 0.2995 | 1125.17
298.15 K, 8700 kPa, x1 = 0.5013 | 1287.86
298.15 K, 8800 kPa, x1 = 0.6994 | 1452.5
298.15 K, 10100 kPa, x1 = 0.2995 | 1126.71
298.15 K, 10100 kPa, x1 = 0.5013 | 1289.28
298.15 K, 10300 kPa, x1 = 0.6994 | 1454.22
298.15 K, 11700 kPa, x1 = 0.2995 | 1128.38
298.15 K, 12000 kPa, x1 = 0.5013 | 1291.48
298.15 K, 12000 kPa, x1 = 0.6994 | 1456.29
298.15 K, 13700 kPa, x1 = 0.5013 | 1293.44
298.15 K, 13800 kPa, x1 = 0.2995 | 1130.67
298.15 K, 14000 kPa, x1 = 0.6994 | 1458.57
298.15 K, 15500 kPa, x1 = 0.5013 | 1295.42
298.15 K, 15900 kPa, x1 = 0.2995 | 1132.71
298.15 K, 15900 kPa, x1 = 0.6994 | 1460.86
298.15 K, 17400 kPa, x1 = 0.6994 | 1462.58
298.15 K, 17700 kPa, x1 = 0.2995 | 1134.48
298.15 K, 17900 kPa, x1 = 0.5013 | 1298.2
298.15 K, 19200 kPa, x1 = 0.6994 | 1464.86
298.15 K, 19700 kPa, x1 = 0.2995 | 1136.76
298.15 K, 19800 kPa, x1 = 0.5013 | 1300.25
308.15 K, 101.33 kPa, x1 = 0.108 | 959.03
308.15 K, 101.33 kPa, x1 = 0.1985 | 1024.94
308.15 K, 101.33 kPa, x1 = 0.2997 | 1100.59
308.15 K, 101.33 kPa, x1 = 0.3988 | 1177.02
308.15 K, 101.33 kPa, x1 = 0.5008 | 1258.55
308.15 K, 101.33 kPa, x1 = 0.5477 | 1296.96
308.15 K, 101.33 kPa, x1 = 0.6462 | 1380.36
308.15 K, 101.33 kPa, x1 = 0.7653 | 1485.56
308.15 K, 101.33 kPa, x1 = 0.803 | 1519.81
308.15 K, 101.33 kPa, x1 = 0.905 | 1615.55
308.15 K, 101.33 kPa, x1 = 1 | 1708.86
